Source: patent US11008346B2, “Beta-lactamase inhibitors” (priority 2014, dated 2021)
Read-outs that look alike come from different tables or passages of the source.

What was measured:
[1] = biological target: T1, KPC-2 β-lactamase (Klebsiella pneumoniae, UniProt Q9F663); test: β-lactamase enzyme inhibition, KPC-2; assay type: biochemical
T1 construct: made in house; host or cells: E. coli BL21(DE3)
Summary of the method: (§1)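 Absorbance-based kinetic read over 10 min after a 15 min, 37° C enzyme–inhibitor preincubation. Substrates differed by target: nitrocefin at 100 μM final (OXA-1, p99 AmpC; 486 nm), imipenem (KPC-2; 300 nm), cefotaxime (SHV-5; 260 nm). Percent inhibition per concentration gave the IC50.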

[2] = system: E. cloacae 144200 expressing Class C P99 AmpC; test: broth microdilution MIC, E. cloacae P99; assay type: cell-based; settings: Fixed CAZ (ceftazidime) 4 μg/mL
Summary of the method: (§2)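 Compounds were titrated in 2-fold steps from 32 to 0.25 μg/mL in cation-adjusted Mueller Hinton broth with a β-lactam held at 4 μg/mL. Plates were inoculated by CLSI broth microdilution with strains pre-grown 3–5 h. After 16–20 h at 37 °C, MIC was read visually.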

[3] = system: P. aeruginosa Ps296 expressing VIM-2; test: broth microdilution MIC, P. aeruginosa VIM-2; assay type: cell-based; settings: for MIC of exemplary compounds in presence of fixed β-lactams, P. aerug. Ps296 VIM-2: Fixed Mero (meropenem) 4 μg/mL
Description: (§3) To determine the ability of test compounds to potentiate the inhibition of the growth of bacterial strains that produce beta-lactamase enzymes, classic cell based broth microdilution MIC assays were employed. Six bacteria strains producing beta-lactamase enzymes were used: E. coli expressing the Class A Extended Spectrum Beta-Lactamase (ESBL) CTX-M-15, E. cloacae expressing the Class C P99, K. pneumoniae expressing the Class A carbapenemase KPC-3, P. aeruginosa expressing the Class B carbapenemase VIM-2, K pneumoniae expressing the class A carbapenemase KPC-2 and the class B carbapenemase VIM-4, and S. aureus producing the Class A penicillinase PC-1. The assay was conducted in Cation Adjusted Mueller Hinton Broth (CAMHB, BD #212322, BD Diagnostic Systems, Sparks, Md.). Bacteria strains were grown for 3-5 hours in CAMBH broth. Test compounds were added to a microtiter plate in 2-fold serial dilutions in CAMHB in a final concentration range of 32 μg/mL to 0.25 μg/ml. An overlay of CAMHB containing a Beta-lactam was added to the compounds at a final static concentration of 4 μg/ml. […] In addition to the titration of test compounds the MICs of a panel of control beta-lactams is also tested to ensure the strains are behaving consistently from test to test. Once the test compound and antibiotics are added the plates can be inoculated according to CLSI broth microdilution method. After inoculation the plates are incubated for 16-20 hours at 37° C., then the Minimal Inhibitory Concentration (MIC) of the test compound is determined visually.
(§4) Using the methodology described above, examples of the current invention were evaluated for their ability to inhibit the growth of β-lactamase-producing bacteria in the presence of a β-lactam antibiotic.
(§5) Representative results are shown in Table 4 where A represents an MIC of the fixed β-lactam antibiotic in the presence of >32 µg/mL of a β-lactamase inhibitor of exemplary compounds, B represents the MIC in the presence of between 8 and 32 µg/mL of a β-lactamase inhibitor of exemplary compounds, and C represents the MIC in the presence of ≤4 µg/mL of a β-lactamase inhibitor of exemplary compounds. NT=Not Tested.

[4] = system: K. pneumoniae 156319 expressing KPC-3; test: broth microdilution MIC, K. pneumoniae KPC-3; assay type: cell-based; settings: for MIC of exemplary compounds in presence of fixed β-lactams, K.P. 156319 KPC-3: Fixed Mero (meropenem) 4 μg/mL
Summary of the method: as §2

[5] = biological target: T2, VIM-2 metallo β-lactamase (Pseudomonas aeruginosa, UniProt Q9K2N0); test: β-lactamase enzyme inhibition, VIM-2; assay type: biochemical; settings: Nitrocefin 100 μM, 486 nm; 15 min at 37° C. preincubation; read-out: IC50 VIM-2 (Class B)
T2 construct: made in house; host or cells: E. coli BL21(DE3)
Summary of the method: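 Inhibitor and enzyme sat together 15 min at 37° C before 100 μM nitrocefin (final) was added and 486 nm absorbance read for 10 min. IC50 is the concentration halving initial hydrolysis rate relative to uninhibited wells. Protein came from Q sepharose anion exchange at pH 7.5, repeated to >90% purity.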

[6] = system: K. pneumoniae A-1797 expressing KPC-2 and VIM-4; test: broth microdilution MIC, K. pneumoniae KPC-2 and VIM-4; assay type: cell-based; settings: for MIC of exemplary compounds in presence of fixed β-lactams, K.P. A-1797 KPC-2 VIM-4: Fixed Mero (meropenem) 4 μg/mL
Summary of the method: as §2

[7] = biological target: T3, OXA-1 β-lactamase (Escherichia coli, UniProt P13661); test: β-lactamase enzyme inhibition, OXA-1; assay type: biochemical; settings: Nitrocefin 100 μM, 486 nm; 15 min at 37° C. preincubation; read-out: IC50 OXA-1 (Class D)
T3 construct: made in house; host or cells: E. coli BL21(DE3)
Summary of the method: as §1

[8] = biological target: T4, p99 AmpC β-lactamase (Enterobacter cloacae, UniProt P05364); test: β-lactamase enzyme inhibition, p99 AmpC; assay type: biochemical
T4 construct: made in house; host or cells: E. coli BL21(DE3)
Summary of the method: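 Inhibitor and enzyme were incubated 15 min at 37°C first. The enzyme was recombinant p99 AmpC, untagged, from E. coli BL21(DE3), purified by ion-exchange and size-exclusion chromatography.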

[9] = biological target: T5, SHV-5 β-lactamase (Klebsiella pneumoniae, UniProt P0A3M1); test: β-lactamase enzyme inhibition, SHV-5; assay type: biochemical
T5 construct: made in house; host or cells: E. coli BL21(DE3)
Summary of the method: as §1

[10] = system: E. coli ESBL4 expressing CTX-M-15; test: broth microdilution MIC, E. coli CTX-M-15; assay type: cell-based; settings: Fixed CAZ (ceftazidime) 4 μg/mL
Summary of the method: as §2

[11] = system: S. aureus MSSA-7 producing penicillinase PC-1; test: broth microdilution MIC, S. aureus PC-1; assay type: cell-based
Description: as §3, §4, §5

[12] = imipenem substrate, 300 nm, 15 min at 37° C. preincubation, read-out: IC50 KPC-2 (Class A)
[13] = Klebsiella pneumoniae, read-out: MIC alone

T5 sequence (P0A3M1 22-286): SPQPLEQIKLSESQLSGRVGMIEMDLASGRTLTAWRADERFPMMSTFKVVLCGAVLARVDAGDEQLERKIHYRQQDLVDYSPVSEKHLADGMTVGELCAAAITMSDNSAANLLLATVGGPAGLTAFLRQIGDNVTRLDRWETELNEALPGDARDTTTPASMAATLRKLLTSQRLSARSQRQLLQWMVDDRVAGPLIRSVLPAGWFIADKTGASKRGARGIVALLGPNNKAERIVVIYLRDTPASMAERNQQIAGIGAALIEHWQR
T3 sequence (P13661 26-276): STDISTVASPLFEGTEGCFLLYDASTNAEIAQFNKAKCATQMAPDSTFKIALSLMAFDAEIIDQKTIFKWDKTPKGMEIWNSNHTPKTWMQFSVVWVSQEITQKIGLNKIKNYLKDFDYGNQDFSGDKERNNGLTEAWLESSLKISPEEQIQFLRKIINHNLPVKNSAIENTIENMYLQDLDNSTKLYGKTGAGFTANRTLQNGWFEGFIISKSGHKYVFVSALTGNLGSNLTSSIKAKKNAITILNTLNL
T1 sequence (Q9F663 25-293, looked up): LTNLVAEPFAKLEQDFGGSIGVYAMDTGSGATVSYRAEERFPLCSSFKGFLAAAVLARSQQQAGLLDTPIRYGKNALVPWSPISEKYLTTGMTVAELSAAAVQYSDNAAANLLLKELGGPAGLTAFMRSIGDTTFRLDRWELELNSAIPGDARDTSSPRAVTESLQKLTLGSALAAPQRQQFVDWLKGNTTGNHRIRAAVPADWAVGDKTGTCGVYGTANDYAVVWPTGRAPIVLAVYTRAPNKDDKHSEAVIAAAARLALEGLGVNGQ
T4 sequence (P05364 21-381): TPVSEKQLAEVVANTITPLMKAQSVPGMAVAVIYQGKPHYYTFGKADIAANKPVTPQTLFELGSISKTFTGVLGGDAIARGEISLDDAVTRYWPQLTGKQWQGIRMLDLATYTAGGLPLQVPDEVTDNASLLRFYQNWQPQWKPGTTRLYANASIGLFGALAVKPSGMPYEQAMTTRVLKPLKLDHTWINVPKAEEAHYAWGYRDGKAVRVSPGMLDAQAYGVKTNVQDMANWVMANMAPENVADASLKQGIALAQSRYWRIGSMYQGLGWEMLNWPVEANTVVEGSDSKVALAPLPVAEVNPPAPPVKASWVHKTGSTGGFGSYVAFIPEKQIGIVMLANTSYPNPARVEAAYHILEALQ

Row | Compound | IC50 [1] [µM] | MIC of exemplary compounds in presence of fixed β-lactams, E. cl. 144200 p99 AmpC [2] | MIC of exemplary compounds in presence of fixed β-lactams, P. aerug. Ps296 VIM-2 [3] | MIC of exemplary compounds in presence of fixed β-lactams, K.P. 156319 KPC-3 [4] | IC50 [5] [µM] | MIC of exemplary compounds in presence of fixed β-lactams, K.P. A-1797 KPC-2 VIM-4 [6] | IC50 [7] [µM] | IC50 [8] [µM] | IC50 [9] [µM] | MIC of exemplary compounds in presence of fixed β-lactams, E. coli ESBL4 CTX-M-15 [10] | IC50 [1, 12] [µM] | MIC of exemplary compounds in presence of fixed β-lactams, S. aureus MSSA-7 PC-1 ([11]; Fixed Pip (piperacillin) 4 μg/mL) | MIC alone ([3]; partner antibiotic alone, P. aeruginosa expressing VIM-2) [mg/L] | MIC [4, 13] [mg/L] | MIC [6, 13] [mg/L] | MIC alone ([11]; partner antibiotic alone, S. aureus producing PC-1) [mg/L]
1 | O=C(CCC(F)(F)F)N[C@H]1Cc2cccc(C(=O)O)c2OB1O [Example 7, (R)-2-Hydroxy-3-(4,4,4-trifluoro-butyrylamino)-3,4-dihydro-2H-benzo[e][1,2]oxaborinine-8-carboxylic acid] | < 0.1 | C (C represents the MIC in the presence of ≤4 g/mL of a β-lactamase inhibitor) | B (B represents the MIC in the presence of between 8 and 32 g/mL of a β-lactamase inhibitor) | C (C represents the MIC in the presence of ≤4 g/mL of a β-lactamase inhibitor) | 1 to 10 | A (A represents an MIC of the fixed β-lactam antibiotic in the presence of >32 g/mL of a β-lactamase inhibitor) | < 0.1 | < 0.1 | < 0.1 | C (C represents the MIC in the presence of ≤4 g/mL of a β-lactamase inhibitor) | – | – | – | – | – | –
2 | O=C(CC(C(F)(F)F)C(F)(F)F)N[C@H]1Cc2cccc(C(=O)O)c2OB1O [Example 9, (R)-2-Hydroxy-3-(4,4,4-trifluoro-3-trifluoromethyl-butyrylamino)-3,4-dihydro-2H-benzo[e][1,2]oxaborinine-8-carboxylicacid] | – | C (C represents the MIC in the presence of ≤4 g/mL of a β-lactamase inhibitor) | A (A represents an MIC of the fixed β-lactam antibiotic in the presence of >32 g/mL of a β-lactamase inhibitor) | B (B represents the MIC in the presence of between 8 and 32 g/mL of a β-lactamase inhibitor) | 10 to 100 | A (A represents an MIC of the fixed β-lactam antibiotic in the presence of >32 g/mL of a β-lactamase inhibitor) | 0.1 to 1 | < 0.1 | < 0.1 | B (B represents the MIC in the presence of between 8 and 32 g/mL of a β-lactamase inhibitor) | 0.1 to 1 | – | – | – | – | –
3 | CS(=O)(=O)NCCC(=O)N[C@H]1Cc2cc(F)c(F)c(C(=O)O)c2OB1O [Example 51, (R)-6,7-Difluoro-2-hydroxy-3-(3-methanesulfonylamino-propionylamino)-3,4-dihydro-2H-benzo[e][1,2]oxaborinine-8-carboxylic acid] | – | C (C represents the MIC in the presence of ≤4 g/mL of a β-lactamase inhibitor) | – | C (C represents the MIC in the presence of ≤4 g/mL of a β-lactamase inhibitor) | 1 to 10 | B (B represents the MIC in the presence of between 8 and 32 g/mL of a β-lactamase inhibitor) | < 0.1 | < 0.1 | < 0.1 | C (C represents the MIC in the presence of ≤4 g/mL of a β-lactamase inhibitor) | < 0.1 | – | – | – | – | –
4 | O=C(CCNS(=O)(=O)C(F)(F)F)N[C@H]1Cc2cccc(C(=O)O)c2OB1O [Example 52, (R)-2-Hydroxy-3-(3-trifluoromethanesulfonylamino-propionylamino)-3,4-dihydro-2H-benzo[e][1,2]oxaborinine-8-carboxylic acid] | – | C (C represents the MIC in the presence of ≤4 g/mL of a β-lactamase inhibitor) | – | B (B represents the MIC in the presence of between 8 and 32 g/mL of a β-lactamase inhibitor) | 1 to 10 | B (B represents the MIC in the presence of between 8 and 32 g/mL of a β-lactamase inhibitor) | < 0.1 | < 0.1 | < 0.1 | C (C represents the MIC in the presence of ≤4 g/mL of a β-lactamase inhibitor) | < 0.1 | – | – | – | – | –
5 | CCC(=O)N[C@H]1Cc2cccc(C(=O)O)c2OB1O [Example 62, (R)-2-Hydroxy-3-propionylamino-3,4-dihydro-2H-benzo[e][1,2]oxaborinine-8-carboxylic acid] | < 0.1 | C (C represents the MIC in the presence of ≤4 g/mL of a β-lactamase inhibitor) | B (B represents the MIC in the presence of between 8 and 32 g/mL of a β-lactamase inhibitor) | C (C represents the MIC in the presence of ≤4 g/mL of a β-lactamase inhibitor) | 1 to 10 | B (B represents the MIC in the presence of between 8 and 32 g/mL of a β-lactamase inhibitor) | < 0.1 | – | 0.1 to 1 | C (C represents the MIC in the presence of ≤4 g/mL of a β-lactamase inhibitor) | – | C (C represents the MIC in the presence of ≤4 g/mL of a β-lactamase inhibitor) | – | – | – | –
6 | C[C@@H](O)[C@H]1C(=O)N2C(C(=O)O)=C(S[C@@H]3CN[C@H](C(=O)N(C)C)C3)[C@H](C)[C@H]12 [Meropenem, meropenem, reference compound] | – | – | – | – | – | – | – | – | – | – | – | – | 16 | > 128 | 64 | –
7 | CCN1CCN(C(=O)N[C@@H](C(=O)N[C@@H]2C(=O)N3[C@@H]2SC(C)(C)[C@@H]3C(=O)O)c2ccccc2)C(=O)C1=O [Piperacillin, piperacillin, reference compound] | – | – | – | – | – | – | – | – | – | – | – | – | – | – | – | 64
